Assay results published in US10414811B2, “Protease-resistant lipidated GLP-1 analogs” (MEDIMMUNE LIMITED, priority 2015, dated 2019).
Like-named read-outs stand apart in the source and are kept apart here.

Columns and labels:
Type in all cases: cell-based
[1] = biological target: T1, human glucose-dependent insulinotropic peptide receptor (GIPR) (Homo sapiens, UniProt P48546); assay: cAMP assay, human GIPR cells; conditions: cAMP assay
T1 construct: expressed in transfected cells
T1 sequence (P48546 22-466): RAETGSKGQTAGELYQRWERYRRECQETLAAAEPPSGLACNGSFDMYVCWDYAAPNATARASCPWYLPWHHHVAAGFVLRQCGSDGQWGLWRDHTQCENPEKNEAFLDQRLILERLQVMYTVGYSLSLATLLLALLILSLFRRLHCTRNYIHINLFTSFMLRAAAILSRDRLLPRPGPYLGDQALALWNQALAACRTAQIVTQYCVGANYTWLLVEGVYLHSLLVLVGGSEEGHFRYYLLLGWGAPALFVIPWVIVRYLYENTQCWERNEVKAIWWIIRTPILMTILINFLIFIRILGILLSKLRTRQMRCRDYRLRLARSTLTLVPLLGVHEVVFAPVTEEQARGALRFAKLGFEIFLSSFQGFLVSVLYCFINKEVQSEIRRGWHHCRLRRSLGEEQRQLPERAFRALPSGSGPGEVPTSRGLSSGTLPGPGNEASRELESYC
Summary of the method: (§1)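 Peptide-stimulated cAMP measured by two-step HTRF after a 30 min room-temperature incubation with receptor-expressing cells (hGLP-1R, hGIPR at 1×10^5 cells/ml; hGCGR at 2×10^5 cells/ml). Duplicate dilutions; EC50 from 4-parameter logistic fit of % Delta F.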

[2] = biological target: T2, human GLP-1 receptor (GLP-1R) (Homo sapiens, UniProt P43220); assay: cAMP assay, human GLP-1R cells
T2 construct: expressed in transfected cells
Summary of the method: as §1

[3] = biological target: T3, human glucagon receptor (GCGR) (Homo sapiens, UniProt P47871); assay: cAMP assay, human GCGR cells; conditions: cAMP assay
T3 construct: expressed in transfected cells
Summary of the method: as §1

GLP-1R (INS1e assay) = biological target: T4, GLP-1R (INS1e assay) (Rattus norvegicus, UniProt P32301); assay: INS1e assay, cAMP activity at GLP-1R; conditions: mono-lipidated peptides
T4 construct: endogenous in cells; host or cells: INS-1E cells
T4 sequence (P32301 22-463): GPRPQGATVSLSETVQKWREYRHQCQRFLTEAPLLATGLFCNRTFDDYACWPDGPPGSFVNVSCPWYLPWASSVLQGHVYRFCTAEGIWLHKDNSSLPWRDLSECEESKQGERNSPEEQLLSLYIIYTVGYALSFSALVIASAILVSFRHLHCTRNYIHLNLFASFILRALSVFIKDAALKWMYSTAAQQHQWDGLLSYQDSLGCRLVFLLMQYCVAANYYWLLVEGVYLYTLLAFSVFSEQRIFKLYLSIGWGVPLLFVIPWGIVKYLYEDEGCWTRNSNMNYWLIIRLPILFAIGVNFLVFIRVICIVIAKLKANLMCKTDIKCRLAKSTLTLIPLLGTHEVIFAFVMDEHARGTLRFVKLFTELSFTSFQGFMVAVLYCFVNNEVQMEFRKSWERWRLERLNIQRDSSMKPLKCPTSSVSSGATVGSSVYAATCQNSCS
Summary of the method: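 cAMP was quantified by two-step HTRF, using anti-cAMP cryptate donor and cAMP-d2 acceptor, each diluted 1/20 in conjugate and lysis buffer. EC50 values of the synthetic peptides were derived from the cAMP readout.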

[4] = first determination (n1), read-out: Primary assay EC50 GIP-R (n1)
[5] = second determination (n2), read-out: Primary assay EC50 GIP-R (n2)
[6] = cAMP assay, first determination (n1), read-out: Primary assay EC50 GLP-1R n1
[7] = first determination (n1), read-out: Primary assay EC50 Gluc-R (n1)
[8] = second determination (n2), read-out: Primary assay EC50 Gluc-R (n2)
[9] = mean of n1 and n2, read-out: INS1e assay EC50 Mean pM GLP-1R
[10] = replicate n1, read-out: INS1e assay EC50 GLP-1R n1
[11] = replicate n2, read-out: INS1e assay EC50 GLP-1R n2
[12] = cAMP assay, second determination (n2), read-out: Primary assay EC50 GLP-1R n2
[13] = mean of n1 and n2, read-out: Mean pM GLP-1R

T3 sequence (P47871 26-477): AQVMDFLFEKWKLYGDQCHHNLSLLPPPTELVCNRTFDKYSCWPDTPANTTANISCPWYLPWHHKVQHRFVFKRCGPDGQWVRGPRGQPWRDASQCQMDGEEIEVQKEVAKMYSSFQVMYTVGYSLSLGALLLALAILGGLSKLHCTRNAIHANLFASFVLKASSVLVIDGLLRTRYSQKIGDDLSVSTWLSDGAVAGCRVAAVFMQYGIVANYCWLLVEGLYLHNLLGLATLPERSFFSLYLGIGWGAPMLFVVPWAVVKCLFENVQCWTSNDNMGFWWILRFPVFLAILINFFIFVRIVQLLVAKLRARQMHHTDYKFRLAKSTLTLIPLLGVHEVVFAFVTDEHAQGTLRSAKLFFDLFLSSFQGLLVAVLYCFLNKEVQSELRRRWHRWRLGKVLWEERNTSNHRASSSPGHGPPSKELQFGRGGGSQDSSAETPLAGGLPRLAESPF
T2 sequence (P43220 24-463): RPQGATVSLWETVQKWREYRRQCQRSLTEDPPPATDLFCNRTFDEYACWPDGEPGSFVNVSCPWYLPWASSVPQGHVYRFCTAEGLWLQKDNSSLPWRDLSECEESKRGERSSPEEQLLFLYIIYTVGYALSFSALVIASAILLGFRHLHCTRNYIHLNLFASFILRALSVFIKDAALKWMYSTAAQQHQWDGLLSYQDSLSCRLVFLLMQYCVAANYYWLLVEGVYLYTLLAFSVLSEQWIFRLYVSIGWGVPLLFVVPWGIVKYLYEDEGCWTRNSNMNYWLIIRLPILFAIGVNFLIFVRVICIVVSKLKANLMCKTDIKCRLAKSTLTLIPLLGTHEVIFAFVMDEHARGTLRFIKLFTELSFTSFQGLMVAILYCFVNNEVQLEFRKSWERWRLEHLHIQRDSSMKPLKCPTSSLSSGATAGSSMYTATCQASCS

Row | EC50 [1, 4] [nM] | EC50 [1, 5] [nM] | EC50 [2, 6] [pM] | EC50 [3, 7] [nM] | EC50 [3, 8] [nM] | EC50 (GLP-1R (INS1e assay); [9]) [pM] | EC50 (GLP-1R (INS1e assay); [10]) [pM] | EC50 (GLP-1R (INS1e assay); [11]) [pM] | EC50 [2, 12] [pM] | EC50 [2, 13] [pM] | SMILES
1 | ≥ 26 | ≥ 25.6 | 5.9 | ≥ 26 | ≥ 25.6 | 331 | 391 | 270 | – | – | CC[C@H](C)[C@H](NC(=O)[C@](C)(Cc1ccccc1)NC(=O)[C@H](CCC(=O)O)NC(=O)[C@](C)(CCCCN)NC(=O)[C@H](C)NC(=O)[C@H](C)NC(=O)[C@H](CCC(=O)O)NC(=O)CNC(=O)[C@H](CCC(=O)O)NC(=O)[C@H](CC(C)C)NC(=O)[C@](C)(Cc1ccccc1)NC(=O)[C@H](CO)NC(=O)[C@](C)(CO)NC(=O)[C@@H](NC(=O)[C@H](CC(=O)O)NC(=O)[C@H](CO)NC(=O)[C@@H](NC(=O)[C@](C)(Cc1ccccc1)NC(=O)[C@H](CO)NC(=O)CNC(=O)[C@H](CCC(=O)O)NC(=O)C(C)(C)NC(=O)[C@@H](N)Cc1c[nH]cn1)[C@@H](C)O)C(C)C)C(=O)N[C@@H](C)C(=O)N[C@@H](CCCCNC(=O)COCCOCCNC(=O)COCCOCCNC(=O)CC[C@H](NC(=O)CCCCCCCCCCCCCCCCC(=O)O)C(=O)O)C(=O)N[C@H](C(=O)N[C@H](C(=O)N[C@@](C)(CCCCN)C(=O)NCC(=O)NCC(N)=O)C(C)C)C(C)C [compound 104]
2 | ≥ 26 | – | 170 | ≥ 26 | – | 32400 | 22100 | 42600 | 260 | 216 | CC[C@H](C)[C@H](NC(=O)[C@](C)(Cc1ccccc1)NC(=O)[C@H](CCC(=O)O)NC(=O)[C@H](CCCCNC(=O)COCCOCCNC(=O)COCCOCCNC(=O)CC[C@H](NC(=O)CCCCCCCCCCCCCCCCC(=O)O)C(=O)O)NC(=O)[C@H](C)NC(=O)[C@H](C)NC(=O)[C@H](CCC(=O)O)NC(=O)CNC(=O)[C@H](CCC(=O)O)NC(=O)[C@H](CC(C)C)NC(=O)[C@](C)(Cc1ccccc1)NC(=O)[C@H](CO)NC(=O)[C@](C)(CO)NC(=O)[C@@H](NC(=O)[C@H](CC(=O)O)NC(=O)[C@H](CO)NC(=O)[C@@H](NC(=O)[C@](C)(Cc1ccccc1)NC(=O)[C@H](CO)NC(=O)CNC(=O)[C@H](CCC(=O)O)NC(=O)C(C)(C)NC(=O)[C@@H](N)Cc1c[nH]cn1)[C@@H](C)O)C(C)C)C(=O)N[C@@H](C)C(=O)N[C@@](C)(Cc1ccccc1)C(=O)N[C@H](C(=O)N[C@H](C(=O)N[C@@H](CCCCN)C(=O)NCC(=O)NCC(N)=O)C(C)C)C(C)C [compound 50]
3 | ≥ 26 | ≥ 26 | 7.2 | ≥ 26 | ≥ 26 | 460 | 233 | 687 | 2.7 | 4.9 | CCCCCCCCCCCC(=O)N[C@@H](CCC(=O)N[C@@H](CCC(=O)N[C@@H](CCC(=O)NCCCC[C@H](NC(=O)[C@@H](NC(=O)[C@@H](NC(=O)[C@](C)(Cc1ccccc1)NC(=O)[C@H](C)NC(=O)[C@@H](NC(=O)[C@](C)(Cc1ccccc1)NC(=O)[C@H](CCC(=O)O)NC(=O)[C@](C)(CCCCN)NC(=O)[C@H](C)NC(=O)[C@H](C)NC(=O)[C@H](CCC(=O)O)NC(=O)CNC(=O)[C@H](CCC(=O)O)NC(=O)[C@H](CC(C)C)NC(=O)[C@](C)(Cc1ccccc1)NC(=O)[C@H](CO)NC(=O)[C@](C)(CO)NC(=O)[C@@H](NC(=O)[C@H](CC(=O)O)NC(=O)[C@H](CO)NC(=O)[C@@H](NC(=O)[C@](C)(Cc1ccccc1)NC(=O)[C@H](CO)NC(=O)CNC(=O)[C@H](CCC(=O)O)NC(=O)C(C)(C)NC(=O)[C@@H](N)Cc1c[nH]cn1)[C@@H](C)O)C(C)C)[C@@H](C)CC)C(C)C)C(C)C)C(=O)NCC(=O)NCC(N)=O)C(=O)O)C(=O)O)C(=O)O [compound 166]
